In patent publication US8134015B2, “Compound inhibiting in vivo phosphorous transport and medicine containing the same” (Kyowa Hakko Kirin Co., Ltd., priority 2003, dated 2012):

Biological target: T1, rat NaPi-2b (Rattus norvegicus, UniProt Q9JJ09)
T1 construct: expressed in transfected cells; host or cells: Xenopus oocytes injected with cRNA
T1 sequence (Q9JJ09 1-695): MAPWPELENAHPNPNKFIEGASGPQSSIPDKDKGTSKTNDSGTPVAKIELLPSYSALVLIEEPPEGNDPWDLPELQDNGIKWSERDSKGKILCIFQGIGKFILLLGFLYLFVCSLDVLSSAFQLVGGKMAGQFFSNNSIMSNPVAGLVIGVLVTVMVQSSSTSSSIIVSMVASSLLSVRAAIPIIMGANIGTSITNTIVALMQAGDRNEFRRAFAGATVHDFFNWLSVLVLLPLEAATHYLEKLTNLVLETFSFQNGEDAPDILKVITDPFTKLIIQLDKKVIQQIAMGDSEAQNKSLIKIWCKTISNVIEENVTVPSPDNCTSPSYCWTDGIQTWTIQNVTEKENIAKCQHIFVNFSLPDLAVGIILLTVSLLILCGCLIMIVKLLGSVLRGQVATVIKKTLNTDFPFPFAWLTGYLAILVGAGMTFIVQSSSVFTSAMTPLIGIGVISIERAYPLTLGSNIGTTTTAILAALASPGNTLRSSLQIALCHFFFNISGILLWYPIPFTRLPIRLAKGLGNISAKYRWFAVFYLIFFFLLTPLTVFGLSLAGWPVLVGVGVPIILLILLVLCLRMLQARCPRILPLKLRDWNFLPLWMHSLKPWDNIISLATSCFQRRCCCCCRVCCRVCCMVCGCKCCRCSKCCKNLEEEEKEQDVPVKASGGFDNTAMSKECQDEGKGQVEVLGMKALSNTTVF
Experiment: Sodium-dependent phosphate uptake of Xenopus oocytes which expressed NaPi-2b (32P)
Assay type: cell-based
Conditions: for IC50: Xenopus oocytes expressing rat NaPi-2b, 32P radioactive phosphorus, read-out: IC50 (phosphate uptake inhibitory activity); for inhibition at 300 µM: phosphate uptake, oocytes expressing rat NaPi-2b, determined from inhibition curve
Outline: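 Oocytes injected with rat NaPi-2b cRNA, cultured 2 d, then 32P uptake measured with compound. Values: % inhibition at 300 and 100 μM, both from one inhibition curve.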

Compound	IC50 [µM]	inhibition at 300 µM [%]
COCCOc1cc(NC(=O)c2cccc(CSCC(O)CO)c2)c(C(=O)N/N=C/c2ccc(C)c(C)c2)cc1OCCOC (stereo not shown) [Compound 1015, 3-(2,3-Dihydroxy-propylsulfanylmethyl)-N-[2-(3,4-dimethyl-benzylidene-hydrazinocarbonyl)-4,5-bis-(2-methoxy-ethoxy)-phenyl]-benzamide]	11.1	–
O=C(Nc1ccc(Br)cc1C(=O)N/N=C/c1ccc(F)cc1)c1ccc(CNCCN2CCOCC2)cc1 [Compound 284, N-[4-Bromo-2-(4-fluoro-benzylidene-hydrazinocarbonyl)-phenyl]-4-[(2-morpholin-4-yl-ethylamino)-methyl]-benzamide]	26.9	–
Cn1cccc1/C=N/NC(=O)c1cc(Br)ccc1NC(=O)c1cccnc1 [Compound 211, N-[4-Bromo-2-(1-methyl-1H-pyrrol-2-ylmethylene-hydrazinocarbonyl)-phenyl]-nicotinamide]	69.1	–
Cc1cc(/C=N/NC(=O)c2cc(Cl)ccc2NC(=O)c2cccnc2)oc1C [Compound 222, N-[4-Chloro-2-(4,5-dimethyl-furan-2-ylmethylene-hydrazinocarbonyl)-phenyl]-nicotinamide]	8.86	–
Cc1ccc(/C=N/NC(=O)c2cc(Br)ccc2NC(=O)c2ccc(CN3CCN(CC(=O)N4CCOCC4)CC3)cc2)cc1 [Compound 728, N-[4-Bromo-2-(4-methyl-benzylidene-hydrazinocarbonyl)-phenyl]-4-[4-(2-morpholin-4-yl-2-oxo-ethyl)-piperazin-1-ylmethyl]-benzamide]	20.3	–
CCSCCNCc1ccc(C(=O)Nc2ccc(Br)cc2C(=O)N/N=C/c2ccc(C)cc2)cc1 [Compound 765, N-[4-Bromo-2-(4-methyl-benzylidene-hydrazinocarbonyl)-phenyl]-4-[(2-ethylsulfanyl-ethylamino)-methyl]-benzamide]	6.88	–
CC(O)CN(Cc1ccc(C(=O)Nc2ccc(Br)cc2C(=O)N/N=C/c2ccc(Cl)c(C(F)(F)F)c2)cc1)CC(C)O (stereo not shown) [Compound 721, 4-{[Bis-(2-hydroxy-propyl)-amino]-methyl}-N-[4-bromo-2-(4-chloro-3-trifluoromethyl-benzylidene-hydrazinocarbonyl)-phenyl]-benzamide]	22.3	–
O=C(Nc1ccc(Cl)cc1C(=O)N/N=C/c1cccc(F)c1)c1cccc(CN(CCO)CCO)c1 [Compound 549, 3-{[Bis-(2-hydroxy-ethyl)-amino]-methyl}-N-[4-chloro-2-(3-fluoro-benzylidene-hydrazinocarbonyl)-phenyl]-benzamide]	–	85.1
COc1ccc(/C=N/NC(=O)c2c(C)csc2NC(=O)c2cccc(CN3CCC(O)CC3)c2)cc1 [Compound 598, 3-(4-Hydroxy-piperidin-1-ylmethyl)-N-[3-(4-methoxy-benzylidene-hydrazinocarbonyl)-4-methyl-thiophen-2-yl]-benzamide]	53	–
COc1cc(OC)cc(C(=O)Nc2ccc(Br)cc2C(=O)N/N=C/c2ccc(OC)c(OC)c2)c1 [Compound 128, N-[4-Bromo-2-(3,4-dimethoxy-benzylidene-hydrazinocarbonyl)-phenyl]-3,5-dimethoxy-benzamide]	11.6	–
Cc1ccc(CNNC(=O)c2cc(Cl)ccc2NC(=O)c2cccc(CSCCO)c2)cc1 [Compound 547, N-{4-Chloro-2-[N′-(4-methyl-benzyl)-hydrazinocarbonyl]-phenyl}-3-(2-hydroxy-ethylsulfanylmethyl)-benzamide]	–	66.6
CN(CCO)Cc1ccc(C(=O)Nc2ccc(Cl)cc2C(=O)N/N=C/c2ccc(O)cc2)cc1 [Compound 421, N-[4-Chloro-2-(4-hydroxy-benzylidene-hydrazinocarbonyl)-phenyl]-4-{[(2-hydroxy-ethyl)-methyl-amino]-methyl}-benzamide]	29.6	–
COc1ccc(C(=O)Nc2ccccc2C(=O)N/N=C/c2ccc(OC(F)(F)F)cc2)cc1OC [Compound 33, 3,4-Dimethoxy-N-[2-(4-trifluoromethoxy-benzylidene-hydrazinocarbonyl)-phenyl]-benzamide]	15	–
O=C(Nc1ccc(Br)cc1C(=O)N/N=C/c1cccc(OCCO)c1)c1ccncc1 [Compound 350, N-{4-Bromo-2-[3-(2-hydroxy-ethoxy)-benzylidene-hydrazinocarbonyl]-phenyl}-isonicotinamide]	25.3	–
CCN(CC)CCN(C)Cc1cccc(C(=O)Nc2c(C)csc2C(=O)N/N=C/c2ccc(C)cc2)c1 [Compound 343, 3-{[(2-Diethylamino-ethyl)-methyl-amino]-methyl}-N-[4-methyl-2-(4-methyl-benzylidene-hydrazinocarbonyl)-thiophen-3-yl]-benzamide]	124	–

Now from value to compound:

IC50 [µM]	inhibition at 300 µM [%]	Compound
0.31	–	Cc1ccc(/C=N/NC(=O)c2cc(N3CCCC3)ccc2NC(=O)c2cccc(CSCCO)c2)cc1C [Compound 919, N-[2-(3,4-Dimethyl-benzylidene-hydrazinocarbonyl)-4-pyrrolidin-1-yl-phenyl]-3-(2-hydroxy-ethylsulfanylmethyl)-benzamide]
3.98	–	Cc1csc(NC(=O)c2cccc(CN3CCC(CO)CC3)c2)c1C(=O)N/N=C/c1cccc(F)c1 [Compound 602, N-[3-(3-Fluoro-benzylidene-hydrazinocarbonyl)-4-methyl-thiophen-2-yl]-3-(4-hydroxymethyl-piperidin-1-ylmethyl)-benzamide]
< 3	–	CCN(CC)CCNCc1cccc(C(=O)Nc2scc(C)c2C(=O)N/N=C/c2ccc(C)cc2)c1 [Compound 582, 3-[(2-Diethylamino-ethylamino)-methyl]-N-[4-methyl-3-(4-methyl-benzylidene-hydrazinocarbonyl)-thiophen-2-yl]-benzamide]
3.22	–	CCN(CC)CCN(CCN(CC)CC)Cc1cccc(C(=O)Nc2scc(C)c2C(=O)N/N=C/c2ccc(Cl)c(C(F)(F)F)c2)c1 [Compound 842, 3-{[Bis-(2-diethylamino-ethyl)-amino]-methyl}-N-[3-(4-chloro-3-trifluoromethyl-benzylidene-hydrazinocarbonyl)-4-methyl-thiophen-2-yl]-benzamide]
2.02	–	O=C(Nc1ccc(Cl)cc1C(=O)N/N=C/c1ccc(F)cc1)c1cccnc1 [Compound 185, N-[4-Chloro-2-(4-fluoro-benzylidene-hydrazinocarbonyl)-phenyl]-nicotinamide]
< 3	–	Cc1ccc(/C=N/NC(=O)c2cc(Br)ccc2NC(=O)c2ccc(CSc3ccncc3)cc2)cc1C [Compound 259, N-[4-Bromo-2-(3,4-dimethyl-benzylidene-hydrazinocarbonyl)-phenyl]-4-(pyridin-4-ylsulfanylmethyl)-benzamide]
1.95	–	COc1ccc(C(=O)Nc2ccccc2C(=O)N/N=C/c2ccc(F)c(Cl)c2)cc1OC [Compound 32, N-[2-(3-Chloro-4-fluoro-benzylidene-hydrazinocarbonyl)-phenyl]-3,4-dimethoxy-benzamide]
5.22	–	CCN(CC)CCN(C)Cc1cccc(C(=O)Nc2ccc(N3CCCC3)cc2C(=O)N/N=C/c2ccc(C)c(C)c2)c1 [Compound 916, 3-{[(2-Diethylamino-ethyl)-methyl-amino]-methyl}-N-[2-(3,4-dimethyl-benzylidene-hydrazinocarbonyl)-4-pyrrolidin-1-yl-phenyl]-benzamide]
0.46	–	O=C(Nc1ccc(Br)cc1C(=O)N/N=C/c1ccc(Cl)c(C(F)(F)F)c1)c1ccco1 [Compound 156, Furan-2-carboxylic acid [4-bromo-2-(4-chloro-3-trifluoromethyl-benzylidene-hydrazinocarbonyl)-phenyl]-amide]
6.75	–	CCN(CC)CCN(CCN(CC)CC)Cc1cccc(C(=O)Nc2ccc(N3CCCCC3)cc2C(=O)N/N=C/c2ccc(F)cc2)c1 [Compound 907, 3-{[Bis-(2-diethylamino-ethyl)-amino]-methyl}-N-[2-(4-fluoro-benzylidene-hydrazinocarbonyl)-4-piperidin-1-yl-phenyl]-benzamide]
5.12	–	COc1ccc(C(=O)Nc2ccc(Br)cc2C(=O)N/N=C/c2ccccc2F)cc1OC [Compound 28, N-[4-Bromo-2-(2-fluoro-benzylidene-hydrazinocarbonyl)-phenyl]-3,4-dimethoxy-benzamide]
6.12	–	O=C(Nc1ccc(Br)cc1C(=O)N/N=C/c1ccc(Cl)c(C(F)(F)F)c1)c1ccc(CN2CCC(CCO)CC2)cc1 [Compound 745, N-[4-Bromo-2-(4-chloro-3-trifluoromethyl-benzylidene-hydrazinocarbonyl)-phenyl]-4-[4-(2-hydroxy-ethyl)-piperidin-1-ylmethyl]-benzamide]
< 3	–	Cc1ccc(/C=N/NC(=O)c2c(C)csc2NC(=O)c2cccc(CN3CCC(N4CCCCC4)CC3)c2)cc1C [Compound 569, 3-[1,4′]Bipiperidinyl-1′-ylmethyl-N-[3-(3,4-dimethyl-benzylidene-hydrazinocarbonyl)-4-methyl-thiophen-2-yl]-benzamide]
